Results published in paper PMC5471521, “Novel selective β1-adrenoceptor antagonists for concomitant cardiovascular and respiratory disease” (The FASEB Journal, 2017).
Read-outs that look alike come from different tables or passages of the source.

Assays:
rat β1-AR = biological target: T1, rat β1-AR (Rattus norvegicus, UniProt P18090); experiment: 3H-CGP12177 whole-cell binding in transiently transfected CHO cells; conditions: for Rat β1 vs. β2 selectivity Kd,ratβ2/Kd,ratβ1: from 3H-CGP12177 whole-cell binding; for Kd: transiently transfected CHO cells, mean ± SEM, read-out: Rat β1-AR Log Kd (converted)
T1 construct: host or cells: CHO cells, transient transfection
T1 sequence (P18090 whole entry): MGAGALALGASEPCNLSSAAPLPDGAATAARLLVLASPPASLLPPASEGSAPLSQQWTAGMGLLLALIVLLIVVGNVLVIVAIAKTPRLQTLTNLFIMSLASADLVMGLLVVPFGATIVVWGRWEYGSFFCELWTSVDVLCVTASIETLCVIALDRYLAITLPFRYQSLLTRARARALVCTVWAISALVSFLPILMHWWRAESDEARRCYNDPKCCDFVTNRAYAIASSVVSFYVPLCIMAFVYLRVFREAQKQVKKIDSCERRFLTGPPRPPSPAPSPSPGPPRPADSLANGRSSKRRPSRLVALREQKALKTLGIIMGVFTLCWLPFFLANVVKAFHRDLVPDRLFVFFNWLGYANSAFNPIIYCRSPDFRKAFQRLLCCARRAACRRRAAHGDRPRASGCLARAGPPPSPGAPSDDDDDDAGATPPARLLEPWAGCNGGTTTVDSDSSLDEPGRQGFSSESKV
Description: (§1) Human bronchial smooth muscle cells were obtained from Lonza (Basel, Switzerland) and grown in manufacturer media. Rat β-AR binding experiments (DNA from cDNA Resource Centre, Bloomsburg, PA, USA) were conducted by using transiently transfected CHO cells ([44]).
(§2) Propranolol (10 μM) defined nonspecific binding. Kd values were derived from IC50 values by using the Cheng-Prusoff equation as previously described ([11]).

rat β2-AR = biological target: T2, rat β2-AR (Rattus norvegicus, UniProt P10608); experiment: as above; conditions: transiently transfected CHO cells, mean ± SEM; cells marked ^a are apparent log Kd; read-out: Rat β2-AR Log Kd (converted)
T2 construct: host or cells: CHO cells, transient transfection
T2 sequence (P10608 whole entry): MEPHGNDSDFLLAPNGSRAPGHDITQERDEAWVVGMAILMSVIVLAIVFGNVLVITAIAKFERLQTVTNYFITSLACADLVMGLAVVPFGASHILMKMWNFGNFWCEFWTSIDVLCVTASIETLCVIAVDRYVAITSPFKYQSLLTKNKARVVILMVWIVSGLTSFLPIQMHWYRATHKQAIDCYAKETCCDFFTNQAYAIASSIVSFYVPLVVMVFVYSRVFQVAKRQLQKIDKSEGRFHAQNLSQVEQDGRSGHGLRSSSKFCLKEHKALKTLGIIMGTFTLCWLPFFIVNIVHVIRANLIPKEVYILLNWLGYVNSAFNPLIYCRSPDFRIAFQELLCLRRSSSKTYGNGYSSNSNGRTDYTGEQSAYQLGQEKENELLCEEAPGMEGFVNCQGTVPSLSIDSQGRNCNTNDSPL
Description: as §1, §2

human β1-AR [1] = biological target: T3, human β1-AR (Homo sapiens, UniProt P08588); experiment: Duration of ligand binding (washout, 3H-CGP12177 whole-cell binding in CHO-β1 cells); conditions: greater shift = shorter duration of binding; mean ± SEM
T3 construct: expressed in transfected cells
T3 sequence (P08588 whole entry): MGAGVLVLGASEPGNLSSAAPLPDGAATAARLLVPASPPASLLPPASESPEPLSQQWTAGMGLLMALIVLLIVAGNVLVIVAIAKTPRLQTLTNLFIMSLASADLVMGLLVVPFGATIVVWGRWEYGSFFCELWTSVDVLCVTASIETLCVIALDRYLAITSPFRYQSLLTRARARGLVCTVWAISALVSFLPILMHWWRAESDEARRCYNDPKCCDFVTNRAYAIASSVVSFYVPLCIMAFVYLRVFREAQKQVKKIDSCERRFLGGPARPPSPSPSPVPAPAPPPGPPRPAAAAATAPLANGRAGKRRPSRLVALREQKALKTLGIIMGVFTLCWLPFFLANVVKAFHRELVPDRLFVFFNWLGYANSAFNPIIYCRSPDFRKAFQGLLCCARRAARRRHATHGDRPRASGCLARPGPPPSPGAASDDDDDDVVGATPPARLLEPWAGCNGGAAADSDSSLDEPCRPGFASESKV
Description: A method that involved ligand washout was used as described ([44]). Cells were incubated with either competing ligand and ^3H-CGP12177 for 2 h (control plate), or competing ligand alone for 2 h (duration plate). After 2 h, the control plate was processed while the duration plate was washed, and ^3H-CGP12177 alone was added to wells and incubated for a second 2 h before processing. […] Relative measures of ligand duration of binding are indicated by the degree of rightward shift of displacement curves ([44]).

human β1-AR [2] = biological target: T3, human β1-AR; experiment: CRE-SPAP reporter gene assay in CHO-β1 cells; assay type: cell-based; conditions: agonist mode, n = 5
Description: cAMP response element (CRE)–secreted placental alkaline phosphatase (SPAP) production was measured in confluent cells (96-well plates, 5 h incubation at 37°C) as described in Baker ([46]). This assay is a sensitive measure of both cAMP and ERK1/2 MAPK pathways ([47]).

[3] = Lipophilicity (chromatographic logD); assay type: physicochemical; conditions: octanol/water, estimated from chromatographic retention
Description: Octanol–water partition coefficient values (logD) of NDD-713 and -825 were estimated as described in Lombardo et al. ([49]) by correlation of the chromatographic retention properties of compounds against the characteristics of standard compounds with known partition coefficient values. Studies were carried out by CDCO.

[4] = Bidirectional CaCo-2 permeability; assay type: in vitro ADME; conditions: human, hydrochloride salts used; for efflux ratio at 90 min, 20 µM: Caco-2, pH 7.4, read-out: Efflux ratio Papp, B-A/Papp, A-B; for Papp A→B at 90 min, 20 µM: Caco-2, pH 7.4, 90 min, mean ± SD
Description: (§3) CaCo-2 cells were grown in Transwell permeable supports, and confluency was assessed by transepithelial electrical resistance measurements (>270 Ω/cm^2) and by unidirectional permeability (apical-basolateral) of the low- and high-permeability reference compounds, ^14C-mannitol and ^3H-propranolol. NDD-713.HCl and -825.HCl (20 µM in HBSS that contained 20 mM HEPES, pH 7.4) were transferred to the donor compartment of Transwell plates and the acceptor compartments were filled with blank HBSS. Permeability was determined over 90 min by sampling both compartments. Quantitation of compound concentrations in donor and acceptor samples was by liquid chromatography–mass spectrometry (LC-MS; lower limit of quantification, 0.5–1.5 ng/ml), and for ^14C-mannitol and ^3H-propranolol, by liquid scintillation counting. Apparent permeability coefficients (Papp) were calculated as follows: Papp (cm/s) = dQ/dT × 1/(C0 × A), where dQ/dt = apparent steady-state transport rate (μmol/s); C0 = initial concentration in the chamber (μmol/cm^3); and A = surface area of CaCo-2 monolayer (0.3cm^2). Efflux ratios were calculated as the ratio of mean Papp values in B→A and A→B directions. Studies were carried out by CDCO.

CaCo-2 cells = experiment: Bidirectional CaCo-2 permeability; assay type: in vitro ADME; conditions: for Apical-to-basolateral membrane permeability (class in words): bidirectional CaCo-2 assay; for Mass balance A-B: hydrochloride salts used
Description: as §3

[5] = Protein binding by ultracentrifugation, human plasma; assay type: in vitro ADME; conditions: read-out: fu human plasma
Description: Protein binding of 1 µM NDD-713.HCl and -825.HCl in human and rat plasma, as well as human liver microsomes, was assessed by using the ultracentrifugation technique. Frozen human plasma (Australian Red Cross Blood Service, Melbourne, VIC, Australia) and rat plasma (male Sprague-Dawley rats; Charles River, Margate, Kent, United Kingdom) were thawed at 37°C. Human liver microsomes (XenoTech) were suspended in 0.1 M phosphate buffer (pH 7.4) at protein concentrations of 0.4 mg/ml. Samples were collected immediately as stability reference controls. Spiked plasma samples (but not microsome samples) were incubated at 37°C for 1 h. […] NDD-713.HCl and -825.HCl concentrations of noncentrifuged matrix and protein-free supernatant were determined by UPLC-MS relative to calibration standards prepared in the respective matrices. Total concentration (Ctotal) was the average measured concentration in […] samples maintained at 37°C, and unbound concentration (Cunbound) was the average measured concentration in protein-free supernatants from centrifuged samples (n = 3). The compound unbound fraction (fu) was calculated: fu = Cunbound/Ctotal. Compound degradation was assessed by comparing concentrations in noncentrifuged plasma samples that were incubated at 37°C with concentrations measured in the t = 0 noncentrifuged samples. […]

hERG potassium channel = hERG potassium channel (Homo sapiens, UniProt Q12809); experiment: hERG 3H-astemizole radioligand binding; conditions: 10 µM; concentrations >3000-fold β1-AR affinity
Sequence of hERG potassium channel (Q12809 whole entry): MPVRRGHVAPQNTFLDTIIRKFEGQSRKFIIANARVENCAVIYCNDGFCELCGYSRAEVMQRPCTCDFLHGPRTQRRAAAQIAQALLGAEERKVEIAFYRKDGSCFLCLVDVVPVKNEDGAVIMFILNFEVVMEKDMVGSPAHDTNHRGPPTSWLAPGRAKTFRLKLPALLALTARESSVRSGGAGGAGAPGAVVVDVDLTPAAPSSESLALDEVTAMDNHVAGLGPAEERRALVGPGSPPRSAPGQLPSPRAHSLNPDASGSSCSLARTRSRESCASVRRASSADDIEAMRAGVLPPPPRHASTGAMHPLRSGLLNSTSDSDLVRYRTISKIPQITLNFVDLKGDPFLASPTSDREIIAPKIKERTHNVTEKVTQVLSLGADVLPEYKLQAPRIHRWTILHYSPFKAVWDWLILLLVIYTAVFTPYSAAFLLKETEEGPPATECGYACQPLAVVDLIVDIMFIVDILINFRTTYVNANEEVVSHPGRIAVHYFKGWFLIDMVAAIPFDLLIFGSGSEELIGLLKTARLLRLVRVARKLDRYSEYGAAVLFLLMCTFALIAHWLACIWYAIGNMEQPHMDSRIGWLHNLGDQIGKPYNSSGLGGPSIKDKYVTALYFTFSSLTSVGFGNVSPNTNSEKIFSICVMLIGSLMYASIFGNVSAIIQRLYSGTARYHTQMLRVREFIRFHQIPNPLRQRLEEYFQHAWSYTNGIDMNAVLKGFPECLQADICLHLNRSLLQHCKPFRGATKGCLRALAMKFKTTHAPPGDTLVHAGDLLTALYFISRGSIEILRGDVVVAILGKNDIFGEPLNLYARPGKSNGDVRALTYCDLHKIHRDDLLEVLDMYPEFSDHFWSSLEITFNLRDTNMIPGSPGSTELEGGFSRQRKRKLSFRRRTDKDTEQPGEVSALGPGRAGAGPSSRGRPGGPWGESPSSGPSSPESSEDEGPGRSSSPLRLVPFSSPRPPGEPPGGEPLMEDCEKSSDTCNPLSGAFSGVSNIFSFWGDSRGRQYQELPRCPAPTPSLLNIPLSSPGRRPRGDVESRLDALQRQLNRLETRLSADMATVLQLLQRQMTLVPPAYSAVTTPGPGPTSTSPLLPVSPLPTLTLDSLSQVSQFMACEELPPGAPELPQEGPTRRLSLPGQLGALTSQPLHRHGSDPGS

[6] = pH 3, chromatographic estimate, read-out: Distribution coefficient, pH 3 (gLogDpH 3)
[7] = pH 7.4, chromatographic estimate, read-out: Distribution coefficient, pH 7.4 (gLogDpH 7.4)

**Q.** For `NC(=O)c1ccc(OCCNC[C@H](O)COc2ccc3c(c2)OC[C@@H](COCC2CC2)O3)cc1` [NDD-713], which “Rat β1 vs. β2 selectivity Kd,ratβ2/Kd,ratβ1” value (rat β1-AR) is on record?
**A.** 2188

**Q.** What about the Kd (rat β1-AR) of the same compound?
**A.** 0.00851 µM

**Q.** What about the Kd (rat β2-AR) of the same compound?
**A.** 18.6 µM

**Q.** What about the “Log shift (rightward shift of washout curve vs control)” value (human β1-AR [1]) of the same compound?
**A.** 1.75 ± 0.08

**Q.** What about the “CRE-SPAP production relative to isoprenaline maximum” value (human β1-AR [2]) of the same compound?
**A.** no responses were observed

**Q.** And the chromatographic logD [3, 6]?
**A.** 1.7

**Q.** And the chromatographic logD [3, 7]?
**A.** 2.3

**Q.** What about the efflux ratio at 90 min, 20 µM [4] of the same compound?
**A.** < 3

**Q.** What about the Papp A→B at 90 min, 20 µM [4] of the same compound?
**A.** 25 ± 4 ×10⁻⁶ cm/s

**Q.** What about the “Apical-to-basolateral membrane permeability (class in words)” value (CaCo-2 cells) of the same compound?
**A.** high

**Q.** And the “Mass balance A-B” value (CaCo-2 cells)?
**A.** 76 ± 10%

**Q.** What about the fraction unbound at 1 h, 1 µM [5] of the same compound?
**A.** 0.15

**Q.** What about the “Affinity for the hERG channel” value (hERG potassium channel) of the same compound?
**A.** no affinity for the hERG channel

**Q.** With `O=C1NCc2cc(OCCNC[C@H](O)COc3ccc4c(c3)OC[C@@H](COCC3CC3)O4)ccc21` [NDD-825] as the compound, how does the “Rat β1 vs. β2 selectivity Kd,ratβ2/Kd,ratβ1” value (rat β1-AR) read?
**A.** 3090

**Q.** What about the Kd (rat β1-AR) of the same compound?
**A.** 0.00427 µM

**Q.** What about the Kd (rat β2-AR) of the same compound?
**A.** 13.2 µM

**Q.** What about the “Log shift (rightward shift of washout curve vs control)” value (human β1-AR [1]) of the same compound?
**A.** 1.62 ± 0.11

**Q.** And the “CRE-SPAP production relative to isoprenaline maximum” value (human β1-AR [2])?
**A.** no responses were observed

**Q.** What about the chromatographic logD [3, 6] of the same compound?
**A.** 1.5

**Q.** And the chromatographic logD [3, 7]?
**A.** 2

**Q.** And the efflux ratio at 90 min, 20 µM [4]?
**A.** < 3

**Q.** What about the Papp A→B at 90 min, 20 µM [4] of the same compound?
**A.** 6.5 ± 0.5 ×10⁻⁶ cm/s

**Q.** And the “Apical-to-basolateral membrane permeability (class in words)” value (CaCo-2 cells)?
**A.** intermediate

**Q.** And the “Mass balance A-B” value (CaCo-2 cells)?
**A.** 79 ± 11%

**Q.** What about the fraction unbound at 1 h, 1 µM [5] of the same compound?
**A.** 0.01

**Q.** What about the “Affinity for the hERG channel” value (hERG potassium channel) of the same compound?
**A.** no affinity for the hERG channel
